Assay results: the NIST ThermoML archive (doi:10.1016/j.jct.2012.06.018)

Conditions: for surface tension liquid-gas: Ring tensiometer; for viscosity / mass density: 101.33 kPa, Liquid; for viscosity: Capillary tube (Ostwald / Ubbelohde) method; for mass density: Pycnometric method

CCCC[n+]1cccc(C)c1.O=S(=O)([N-]S(=O)(=O)C(F)(F)F)C(F)(F)F
Conditions	mass density [kg/m3]	surface tension liquid-gas [mN/m]	viscosity [mPa·s]
293.15 K	1429	35.8	81.71
298.15 K	1425	35.5	64.73
303.15 K	1423	35.3	51.42
308.15 K	1421	35.1	41.73
313.15 K	1420	34.8	33.98
318.15 K	1419	34.6	29.05
323.15 K	1416	34.4	25.68

CCCC[n+]1ccccc1.O=S(=O)([N-]S(=O)(=O)C(F)(F)F)C(F)(F)F [1-butylpyridinium bis[(trifluoromethyl)sulfonyl]imide]
Conditions	mass density [kg/m3]	surface tension liquid-gas [mN/m]	viscosity [mPa·s]
293.15 K	1462	35	75.61
298.15 K	1456	34.8	60.55
303.15 K	1445	34.5	48.11
308.15 K	1441	34.4	38.08
313.15 K	1439	34.3	32.37
318.15 K	1437	34.2	27.62
323.15 K	1433	34.1	22.75

CC[n+]1ccccc1.O=S(=O)([N-]S(=O)(=O)C(F)(F)F)C(F)(F)F [1-ethylpyridinium bis[(trifluoromethyl)sulfonyl]imide]
Conditions	mass density [kg/m3]	surface tension liquid-gas [mN/m]	viscosity [mPa·s]
293.15 K	1534	35.6	47.43
298.15 K	1532	35.5	39.76
303.15 K	1530	35.4	33.31
308.15 K	1528	35.3	27.8
313.15 K	1520	35.2	23.39
318.15 K	1519	35.2	20.2
323.15 K	1515	35.1	17.61

CCCC[n+]1ccccc1C.O=S(=O)([N-]S(=O)(=O)C(F)(F)F)C(F)(F)F
Conditions	mass density [kg/m3]	surface tension liquid-gas [mN/m]	viscosity [mPa·s]
293.15 K	1482	36.5	143.91
298.15 K	1476	36.3	95.73
303.15 K	1459	36.1	72.05
308.15 K	1450	35.9	56.95
313.15 K	1446	35.5	45.83
318.15 K	1440	35.2	37.39
323.15 K	1435	35	29.48

CCCC[n+]1cccc(C)c1.F[B-](F)(F)F [1-butyl-3-methylpyridinium tetrafluoroborate]
Conditions	mass density [kg/m3]	surface tension liquid-gas [mN/m]	viscosity [mPa·s]
293.15 K	1189	47.5	226.15
298.15 K	1177	47.1	169.51
303.15 K	1172	45.8	129.06
308.15 K	1168	45.6	97.03
313.15 K	1166	45.3	73.35
318.15 K	1163	44.9	59.05
323.15 K	1160	44.4	46.59

CCCC[n+]1cccc(C)c1.O=S(=O)([O-])C(F)(F)F [1-butyl-3-methylpyridinium trifluoromethanesulfonate]
Conditions	mass density [kg/m3]	surface tension liquid-gas [mN/m]	viscosity [mPa·s]
293.15 K	1306	38.6	142.15
298.15 K	1297	38.2	126.57
303.15 K	1291	37.5	101.27
308.15 K	1285	37.1	78.04
313.15 K	1275	36.9	60.98
318.15 K	1270	36.6	48.9
323.15 K	1251	36.2	37.94

CCCCCC[n+]1ccccc1.O=S(=O)([N-]S(=O)(=O)C(F)(F)F)C(F)(F)F [1-hexylpyridinium bis(trifluromethylsulfonyl)imide]
Conditions	mass density [kg/m3]	surface tension liquid-gas [mN/m]	viscosity [mPa·s]
293.15 K	1386	34.2	275.12
298.15 K	1382	33.9	245.33
303.15 K	1379	33.5	201.82
308.15 K	1373	33.3	153.24
313.15 K	1368	33	131.32
318.15 K	1368	32.8	105.99
323.15 K	1362	32.6	83.66

CCCC[n+]1ccc(C)cc1.O=S(=O)([N-]S(=O)(=O)C(F)(F)F)C(F)(F)F
Conditions	mass density [kg/m3]	surface tension liquid-gas [mN/m]	viscosity [mPa·s]
293.15 K	1419	35.4	65.26
298.15 K	1413	35	54.41
303.15 K	1412	34.7	44.42
308.15 K	1411	34.5	36.12
313.15 K	1410	34.2	29.81
318.15 K	1409	34	25.18
323.15 K	1405	33.8	20.23
